According to patent publication US20230348442A1, “GALECTIN-3 INHIBITING 2-HYDROXYCYCLOALKANE-1-CARBAMOYL DERIVATIVES” (Idorsia Pharmaceuticals Ltd, priority 2020, published 2023):

Biological target: human Gal-3 (hGal-3) (Homo sapiens (Human), UniProt P17931)
Experiment: competitive binding assay: binding of biotinylated hGal-3 to microplate-adsorbed asialofetuin (ASF), spectrophotometric
Settings: Activity on hGal-3; mean values of several measurements
Procedure: Evaluation of Compound Inhibitory Activity (IC50)
The inhibitory activity of compounds is determined in competitive binding assays. This spectrophotometric assay measures the binding of biotinylated human Gal-3 (hGal-3) or human Gal-1 (hGal-1), respectively, to a microplate-adsorbed glycoprotein, asialofetuin (ASF) (Proc Natl Acad Sci USA. 2013 Mar. 26; 110(13):5052-7.). Alternatively, and preferably, a human Gal-1 version in which all six cysteines are substituted by serines may be used.
Briefly, compounds are serially diluted in DMSO (working dilutions). ASF-coated 384 well plates are supplemented with 22.8 μL/well of biotinylated hGal-3 or hGal-1 in assay buffer (i.e. 300-1000 ng/mL biotinylated hGal-3 or hGal-1) to which 1.2 μL of compound working dilutions are added and mixed.
Plates are incubated for 3 hours at 4° C., then washed with cold assay buffer (3×50 uL), incubated for 1 hour with 25 μL/well of a streptavidin-peroxidase solution (diluted in assay buffer to 80 ng/mL) at 4° C., followed by further washing steps with assay buffer (3×50 uL). Finally, 25 μL/well of ABTS substrate is added.
The calculated IC50 values may fluctuate depending on the daily assay performance. Fluctuations of this kind are known to those skilled in the art. IC50 values from several measurements are given as mean values.

Chain of human Gal-3 (hGal-3) (P17931 whole entry): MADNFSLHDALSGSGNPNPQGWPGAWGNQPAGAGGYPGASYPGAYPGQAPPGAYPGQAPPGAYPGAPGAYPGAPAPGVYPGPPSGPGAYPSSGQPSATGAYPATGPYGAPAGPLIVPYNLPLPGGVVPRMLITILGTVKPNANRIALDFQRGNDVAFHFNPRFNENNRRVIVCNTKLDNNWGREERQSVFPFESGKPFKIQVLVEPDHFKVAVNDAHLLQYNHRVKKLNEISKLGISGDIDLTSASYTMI

For `CO[C@@H]1[C@@H](n2cc(-c3cc(F)c(F)c(F)c3)nn2)[C@@H](O)[C@@H](CO)O[C@H]1C(=O)N(c1cccc(Cl)c1)[C@H]1CCC[C@@H]1O` [Example 1.1.1, (2R,3R,4S,5R,6R)—N-(3-chlorophenyl)-5-hydroxy-N-((1S,2S)-2-hydroxycyclopentyl)-6-(hydroxymethyl)-3-methoxy-4-(4-(3,4,5-trifluorophenyl)-1H-1,2,3-triazol-1-yl)tetrahydro-2H-pyran-2-carboxamide], which IC50 is on record?
The IC50 was 36.5 nM.

`CO[C@@H]1[C@@H](n2cc(-c3cc(F)c(F)c(F)c3)nn2)[C@@H](O)[C@@H](CO)O[C@H]1C(=O)N(c1cc(Cl)cc(Cl)c1)[C@H]1CCC[C@@H]1O` [Example 1.1.2, (2R,3R,4S,5R,6R)-N-(3,5-dichlorophenyl)-5-hydroxy-N-((1S,2S)-2-hydroxycyclopentyl)-6-(hydroxymethyl)-3-methoxy-4-(4-(3,4,5-trifluorophenyl)-1H-1,2,3-triazol-1-yl)tetrahydro-2H-pyran-2-carboxamide] was tested. Which IC50 did it give?
Its IC50 is 37.4 nM.

With `CO[C@@H]1[C@@H](n2cc(-c3cc(F)c(F)c(F)c3)nn2)[C@@H](O)[C@@H](CO)O[C@H]1C(=O)N(c1cc(Cl)cc(Cl)c1)[C@@H]1CCC[C@H]1O` [Example 1.1.2R, (2R,3R,4S,5R,6R)-N-(3,5-dichlorophenyl)-5-hydroxy-N-((1R,2R)-2-hydroxycyclopentyl)-6-(hydroxymethyl)-3-methoxy-4-(4-(3,4,5-trifluorophenyl)-1H-1,2,3-triazol-1-yl)tetrahydro-2H-pyran-2-carboxamide] as the compound, how does the IC50 read?
The IC50 was 104 nM.

Which IC50 does the source give for `CO[C@@H]1[C@@H](n2cc(-c3cc(F)c(F)c(F)c3)nn2)[C@@H](O)[C@@H](CO)O[C@H]1C(=O)N(c1cc(C)cc(Cl)c1)[C@H]1CCC[C@@H]1O` [Example 1.1.3, (2R,3R,4S,5R,6R)-N-(3-chloro-5-methylphenyl)-5-hydroxy-N-((1S,2S)-2-hydroxycyclopentyl)-6-(hydroxymethyl)-3-methoxy-4-(4-(3,4,5-trifluorophenyl)-1H-1,2,3-triazol-1-yl)tetrahydro-2H-pyran-2-carboxamide] here?
Its IC50 is 34.8 nM.

For `CO[C@@H]1[C@@H](n2cc(-c3cc(F)c(F)c(F)c3)nn2)[C@@H](O)[C@@H](CO)O[C@H]1C(=O)N(c1cc(Cl)cc(C#N)c1)[C@H]1CCC[C@@H]1O` [Example 1.1.4, (2R,3R,4S,5R,6R)-N-(3-chloro-5-cyanophenyl)-5-hydroxy-N-((1S,2S)-2-hydroxycyclopentyl)-6-(hydroxymethyl)-3-methoxy-4-(4-(3,4,5-trifluorophenyl)-1H-1,2,3-triazol-1-yl)tetrahydro-2H-pyran-2-carboxamide], which IC50 is on record?
Its IC50 is 27.3 nM.

Which IC50 does the source give for `CO[C@@H]1[C@@H](n2cc(-c3cc(F)c(F)c(F)c3)nn2)[C@@H](O)[C@@H](CO)O[C@H]1C(=O)N(c1cc(Br)cc(C#N)c1)[C@H]1CCC[C@@H]1O` [Example 1.1.5, (2R,3R,4S,5R,6R)-N-(3-bromo-5-cyanophenyl)-5-hydroxy-N-((1S,2S)-2-hydroxycyclopentyl)-6-(hydroxymethyl)-3-methoxy-4-(4-(3,4,5-trifluorophenyl)-1H-1,2,3-triazol-1-yl)tetrahydro-2H-pyran-2-carboxamide] here?
Its IC50 is 23 nM.

How did the IC50 turn out when `CO[C@@H]1[C@@H](n2cc(-c3cc(F)c(F)c(F)c3)nn2)[C@@H](O)[C@@H](CO)O[C@H]1C(=O)N(c1cc(Br)cc(C#N)c1)[C@@H]1CCC[C@H]1O` [Example 1.1.5R, (2R,3R,4S,5R,6R)-N-(3-bromo-5-cyanophenyl)-5-hydroxy-N-((1R,2R)-2-hydroxycyclopentyl)-6-(hydroxymethyl)-3-methoxy-4-(4-(3,4,5-trifluorophenyl)-1H-1,2,3-triazol-1-yl)tetrahydro-2H-pyran-2-carboxamide] was run?
The IC50 was 98.8 nM.

Which IC50 does the source give for `CO[C@@H]1[C@@H](n2cc(-c3cc(F)c(F)c(F)c3)nn2)[C@@H](O)[C@@H](CO)O[C@H]1C(=O)N(c1cccc(I)c1)[C@H]1CCC[C@@H]1O` [Example 1.1.6, (2R,3R,4S,5R,6R)-5-hydroxy-N-((1S,2S)-2-hydroxycyclopentyl)-6-(hydroxymethyl)-N-(3-iodophenyl)-3-methoxy-4-(4-(3,4,5-trifluorophenyl)-1H-1,2,3-triazol-1-yl)tetrahydro-2H-pyran-2-carboxamide] here?
The IC50 was 42.4 nM.

With `CO[C@@H]1[C@@H](n2cc(-c3cc(F)c(F)c(F)c3)nn2)[C@@H](O)[C@@H](CO)O[C@H]1C(=O)N(c1cccc(I)c1)[C@@H]1CCC[C@H]1O` [Example 1.1.6R, (2R,3R,4S,5R,6R)-5-hydroxy-N-((1R,2R)-2-hydroxycyclopentyl)-6-(hydroxymethyl)-N-(3-iodophenyl)-3-methoxy-4-(4-(3,4,5-trifluorophenyl)-1H-1,2,3-triazol-1-yl)tetrahydro-2H-pyran-2-carboxamide] as the compound, how does the IC50 read?
Its IC50 is 261 nM.

Which IC50 does the source give for `CO[C@@H]1[C@@H](n2cc(-c3cc(F)c(F)c(F)c3)nn2)[C@@H](O)[C@@H](CO)O[C@H]1C(=O)N(c1cccc(Br)c1)[C@H]1CCC[C@@H]1O` [Example 1.1.10, (2R,3R,4S,5R,6R)-N-(3-bromophenyl)-5-hydroxy-N-((1S,2S)-2-hydroxycyclopentyl)-6-(hydroxymethyl)-3-methoxy-4-(4-(3,4,5-trifluorophenyl)-1H-1,2,3-triazol-1-yl)tetrahydro-2H-pyran-2-carboxamide] here?
Its IC50 is 78.8 nM.

For `CO[C@@H]1[C@@H](n2cc(-c3cc(F)c(F)c(F)c3)nn2)[C@@H](O)[C@@H](CO)O[C@H]1C(=O)N(c1cccc(Br)c1)[C@@H]1CCC[C@H]1O` [Example 1.1.10R, (2R,3R,4S,5R,6R)-N-(3-bromophenyl)-5-hydroxy-N-((1R,2R)-2-hydroxycyclopentyl)-6-(hydroxymethyl)-3-methoxy-4-(4-(3,4,5-trifluorophenyl)-1H-1,2,3-triazol-1-yl)tetrahydro-2H-pyran-2-carboxamide], which IC50 is on record?
The IC50 was 376 nM.

Which IC50 does the source give for `CO[C@@H]1[C@@H](n2cc(-c3cc(F)c(F)c(F)c3)nn2)[C@@H](O)[C@@H](CO)O[C@H]1C(=O)N(c1cc(Br)cc(Br)c1)[C@H]1CCC[C@@H]1O` [Example 1.1.11, (2R,3R,4S,5R,6R)-N-(3,5-dibromophenyl)-5-hydroxy-N-((1S,2S)-2-hydroxycyclopentyl)-6-(hydroxymethyl)-3-methoxy-4-(4-(3,4,5-trifluorophenyl)-1H-1,2,3-triazol-1-yl)tetrahydro-2H-pyran-2-carboxamide] here?
The IC50 was 31 nM.

For `CO[C@@H]1[C@@H](n2cc(-c3cc(F)c(F)c(F)c3)nn2)[C@@H](O)[C@@H](CO)O[C@H]1C(=O)N(c1cc(Br)cc(Br)c1)[C@@H]1CCC[C@H]1O` [Example 1.1.11R, (2R,3R,4S,5R,6R)-N-(3,5-dibromophenyl)-5-hydroxy-N-((1R,2R)-2-hydroxycyclopentyl)-6-(hydroxymethyl)-3-methoxy-4-(4-(3,4,5-trifluorophenyl)-1H-1,2,3-triazol-1-yl)tetrahydro-2H-pyran-2-carboxamide], which IC50 is on record?
Its IC50 is 390 nM.

With `CO[C@@H]1[C@@H](n2cc(-c3cc(F)c(F)c(F)c3)nn2)[C@@H](O)[C@@H](CO)O[C@H]1C(=O)N(c1cc(C)cc(Br)c1)[C@H]1CCC[C@@H]1O` [Example 1.1.12, (2R,3R,4S,5R,6R)-N-(3-bromo-5-methylphenyl)-5-hydroxy-N-((1S,2S)-2-hydroxycyclopentyl)-6-(hydroxymethyl)-3-methoxy-4-(4-(3,4,5-trifluorophenyl)-1H-1,2,3-triazol-1-yl)tetrahydro-2H-pyran-2-carboxamide] as the compound, how does the IC50 read?
Its IC50 is 34.7 nM.

`CO[C@@H]1[C@@H](n2cc(-c3cc(F)c(F)c(F)c3)nn2)[C@@H](O)[C@@H](CO)O[C@H]1C(=O)N(c1cc(C)cc(Br)c1)[C@@H]1CCC[C@H]1O` [Example 1.1.12R, (2R,3R,4S,5R,6R)-N-(3-bromo-5-methylphenyl)-5-hydroxy-N-((1R,2R)-2-hydroxycyclopentyl)-6-(hydroxymethyl)-3-methoxy-4-(4-(3,4,5-trifluorophenyl)-1H-1,2,3-triazol-1-yl)tetrahydro-2H-pyran-2-carboxamide] was tested. Which IC50 did it give?
Its IC50 is 348 nM.

`CO[C@@H]1[C@@H](n2cc(-c3cc(F)cc(F)c3)nn2)[C@@H](O)[C@@H](CO)O[C@H]1C(=O)N(c1cc(Br)cc(C#N)c1)[C@H]1CCC[C@@H]1O` [Example 1.2.5, (2R,3R,4S,5R,6R)-N-(3-bromo-5-cyanophenyl)-4-(4-(3,5-difluorophenyl)-1H-1,2,3-triazol-1-yl)-5-hydroxy-N-((1S,2S)-2-hydroxycyclopentyl)-6-(hydroxymethyl)-3-methoxytetrahydro-2H-pyran-2-carboxamide] was tested. Which IC50 did it give?
The IC50 was 146 nM.

Which IC50 does the source give for `CO[C@@H]1[C@@H](n2cc(-c3cc(F)cc(F)c3)nn2)[C@@H](O)[C@@H](CO)O[C@H]1C(=O)N(c1cc(Br)cc(C#N)c1)[C@@H]1CCC[C@H]1O` [Example 1.2.5R, (2R,3R,4S,5R,6R)-N-(3-bromo-5-cyanophenyl)-4-(4-(3,5-difluorophenyl)-1H-1,2,3-triazol-1-yl)-5-hydroxy-N-((1R,2R)-2-hydroxycyclopentyl)-6-(hydroxymethyl)-3-methoxytetrahydro-2H-pyran-2-carboxamide] here?
Its IC50 is 450 nM.

`COc1cc(-c2cn([C@H]3[C@@H](O)[C@@H](CO)O[C@@H](C(=O)N(c4cc(Cl)cc(Cl)c4)[C@H]4CCC[C@@H]4O)[C@@H]3OC)nn2)cc(F)c1F` [Example 1.3.2, (2R,3R,4S,5R,6R)-N-(3,5-dichlorophenyl)-4-(4-(3,4-difluoro-5-methoxyphenyl)-1H-1,2,3-triazol-1-yl)-5-hydroxy-N-((1S,2S)-2-hydroxycyclopentyl)-6-(hydroxymethyl)-3-methoxytetrahydro-2H-pyran-2-carboxamide] was tested. Which IC50 did it give?
Its IC50 is 29.5 nM.
